Measured values from ChEMBL document CHEMBL1938231 (J Med Chem, 2011).

Tests used:
[1] = target: T1, Tyrosine-protein kinase JAK3 (Homo sapiens, UniProt P52333); format: cell-based, BaF3
T1 sequence (P52333 whole entry): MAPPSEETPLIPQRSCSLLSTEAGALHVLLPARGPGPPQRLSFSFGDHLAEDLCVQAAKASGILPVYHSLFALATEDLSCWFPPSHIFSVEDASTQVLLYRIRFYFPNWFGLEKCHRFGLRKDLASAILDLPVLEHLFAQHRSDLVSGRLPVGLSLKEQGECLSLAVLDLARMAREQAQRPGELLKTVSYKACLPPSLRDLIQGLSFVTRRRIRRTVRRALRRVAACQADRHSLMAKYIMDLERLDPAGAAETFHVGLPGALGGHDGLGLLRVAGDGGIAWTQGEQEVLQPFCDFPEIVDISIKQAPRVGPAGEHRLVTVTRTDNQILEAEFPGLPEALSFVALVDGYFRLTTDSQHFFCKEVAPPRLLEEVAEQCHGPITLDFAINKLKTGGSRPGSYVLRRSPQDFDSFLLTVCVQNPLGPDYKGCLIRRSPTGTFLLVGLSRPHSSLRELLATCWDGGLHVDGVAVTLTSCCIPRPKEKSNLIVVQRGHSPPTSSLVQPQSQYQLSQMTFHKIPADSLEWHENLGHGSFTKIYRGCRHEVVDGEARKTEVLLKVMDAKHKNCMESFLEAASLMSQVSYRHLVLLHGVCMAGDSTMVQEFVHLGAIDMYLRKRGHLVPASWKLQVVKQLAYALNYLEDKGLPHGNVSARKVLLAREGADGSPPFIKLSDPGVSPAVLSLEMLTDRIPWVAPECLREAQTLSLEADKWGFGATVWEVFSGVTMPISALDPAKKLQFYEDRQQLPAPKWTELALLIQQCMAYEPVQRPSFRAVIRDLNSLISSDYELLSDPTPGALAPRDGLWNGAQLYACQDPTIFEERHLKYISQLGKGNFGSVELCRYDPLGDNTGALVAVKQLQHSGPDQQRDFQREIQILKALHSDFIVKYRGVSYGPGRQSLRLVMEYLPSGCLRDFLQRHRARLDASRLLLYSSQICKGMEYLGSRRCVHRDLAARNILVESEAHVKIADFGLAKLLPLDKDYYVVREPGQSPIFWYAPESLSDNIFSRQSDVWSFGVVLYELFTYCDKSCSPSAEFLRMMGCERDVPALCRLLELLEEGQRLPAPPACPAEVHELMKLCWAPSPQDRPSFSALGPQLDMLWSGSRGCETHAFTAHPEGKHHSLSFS

JAK3/JAK1 [2] = target: T2, JAK3/JAK1 (Homo sapiens, UniProt P23458+P52333); format: cell-based, Blood
[3] = target: T3, Tyrosine-protein kinase JAK1 (Homo sapiens, UniProt P23458); format: cell-based, BaF3
[4] = target: T4, Non-receptor tyrosine-protein kinase TYK2 (Homo sapiens, UniProt P29597); format: cell-based, Sf9
[5] = target: T1, Tyrosine-protein kinase JAK3; format: cell-based, Sf9
[6] = target: T4, Non-receptor tyrosine-protein kinase TYK2; format: cell-based, BaF3
[7] = target: T3, Tyrosine-protein kinase JAK1; format: cell-based, Sf9
JAK3/JAK1 [8] = target: T2, JAK3/JAK1; format: cell-based
in vitro = details: human, plasma
Description: Fraction unbound in human plasma by equilibrium dialysis

T2 sequence (P23458 whole entry, one chain of several): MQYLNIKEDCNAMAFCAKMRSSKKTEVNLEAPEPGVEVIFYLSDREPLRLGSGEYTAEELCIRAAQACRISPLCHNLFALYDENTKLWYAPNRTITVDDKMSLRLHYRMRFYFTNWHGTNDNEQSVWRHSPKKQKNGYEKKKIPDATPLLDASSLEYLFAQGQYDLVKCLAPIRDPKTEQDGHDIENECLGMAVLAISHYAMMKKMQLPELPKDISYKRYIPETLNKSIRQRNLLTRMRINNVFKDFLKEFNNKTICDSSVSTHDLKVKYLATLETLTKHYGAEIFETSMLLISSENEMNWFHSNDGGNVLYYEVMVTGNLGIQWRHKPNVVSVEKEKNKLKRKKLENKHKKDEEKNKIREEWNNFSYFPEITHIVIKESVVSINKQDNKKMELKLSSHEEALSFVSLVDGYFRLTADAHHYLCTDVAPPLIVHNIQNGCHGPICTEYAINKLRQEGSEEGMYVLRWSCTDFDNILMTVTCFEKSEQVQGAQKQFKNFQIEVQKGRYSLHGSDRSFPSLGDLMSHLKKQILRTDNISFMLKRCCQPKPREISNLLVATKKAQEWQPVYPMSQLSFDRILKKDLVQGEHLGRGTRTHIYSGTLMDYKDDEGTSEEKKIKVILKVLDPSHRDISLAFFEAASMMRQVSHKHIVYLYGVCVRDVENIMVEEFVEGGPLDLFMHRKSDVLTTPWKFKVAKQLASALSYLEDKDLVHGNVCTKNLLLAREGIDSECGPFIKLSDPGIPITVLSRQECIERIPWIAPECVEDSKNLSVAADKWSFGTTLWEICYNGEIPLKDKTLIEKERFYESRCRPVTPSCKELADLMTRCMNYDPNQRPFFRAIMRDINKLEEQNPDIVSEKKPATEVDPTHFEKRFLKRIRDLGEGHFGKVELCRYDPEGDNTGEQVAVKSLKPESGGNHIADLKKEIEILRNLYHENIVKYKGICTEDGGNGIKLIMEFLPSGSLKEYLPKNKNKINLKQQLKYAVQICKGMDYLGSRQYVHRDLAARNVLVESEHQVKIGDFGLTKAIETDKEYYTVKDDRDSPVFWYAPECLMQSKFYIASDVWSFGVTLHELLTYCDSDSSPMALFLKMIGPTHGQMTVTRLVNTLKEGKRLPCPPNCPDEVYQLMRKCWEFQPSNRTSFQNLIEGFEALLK
T4 sequence (P29597 whole entry): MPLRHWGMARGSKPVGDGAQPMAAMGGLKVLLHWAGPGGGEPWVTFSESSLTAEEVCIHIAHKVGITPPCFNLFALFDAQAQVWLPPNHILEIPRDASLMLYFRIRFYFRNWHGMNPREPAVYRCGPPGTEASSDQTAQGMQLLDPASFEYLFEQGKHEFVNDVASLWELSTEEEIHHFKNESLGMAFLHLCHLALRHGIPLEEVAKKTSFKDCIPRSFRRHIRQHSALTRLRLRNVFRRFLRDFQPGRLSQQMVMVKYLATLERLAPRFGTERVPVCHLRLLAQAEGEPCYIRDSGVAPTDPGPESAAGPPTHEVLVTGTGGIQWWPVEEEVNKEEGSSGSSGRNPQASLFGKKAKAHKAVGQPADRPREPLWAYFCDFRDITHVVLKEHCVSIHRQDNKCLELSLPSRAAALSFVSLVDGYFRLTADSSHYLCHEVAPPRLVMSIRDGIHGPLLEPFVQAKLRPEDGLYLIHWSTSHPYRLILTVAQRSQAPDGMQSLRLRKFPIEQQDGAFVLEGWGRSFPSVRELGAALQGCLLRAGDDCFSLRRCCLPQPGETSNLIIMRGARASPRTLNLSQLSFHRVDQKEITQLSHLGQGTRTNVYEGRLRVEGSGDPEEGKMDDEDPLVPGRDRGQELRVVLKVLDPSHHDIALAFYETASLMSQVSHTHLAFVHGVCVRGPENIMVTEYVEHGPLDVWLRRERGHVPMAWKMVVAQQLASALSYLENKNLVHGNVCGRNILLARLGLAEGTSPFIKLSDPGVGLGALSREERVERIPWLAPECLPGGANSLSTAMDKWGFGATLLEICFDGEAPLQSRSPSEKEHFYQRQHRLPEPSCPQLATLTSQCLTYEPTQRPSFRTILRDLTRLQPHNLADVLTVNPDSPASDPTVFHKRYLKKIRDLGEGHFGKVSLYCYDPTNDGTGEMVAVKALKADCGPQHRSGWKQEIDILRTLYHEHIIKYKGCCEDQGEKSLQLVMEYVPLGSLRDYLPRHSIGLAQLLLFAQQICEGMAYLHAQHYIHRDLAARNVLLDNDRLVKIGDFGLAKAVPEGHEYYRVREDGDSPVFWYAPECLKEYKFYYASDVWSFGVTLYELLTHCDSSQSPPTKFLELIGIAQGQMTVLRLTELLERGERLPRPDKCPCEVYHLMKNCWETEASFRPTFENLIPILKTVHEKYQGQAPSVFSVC
T3 sequence (P23458 whole entry): as the sequence (P23458 whole entry, one chain of several) above

IC50 [1]	IC50 (JAK3/JAK1 [2])	IC50 [3]	IC50 [4]	IC50 [5]	IC50 [6]	IC50 [7]	IC50 (JAK3/JAK1 [8])	fraction unbound (in vitro)	SMILES
> 25000 nM	> 25000 nM	748 nM	66 nM	18 nM	> 25000 nM	39 nM	548 nM		NC(=O)c1cnc(N)c2cc(-c3ccc(N4CCOCC4)cc3)sc12
> 25000 nM		1810 nM	1330 nM	1340 nM	> 25000 nM	211 nM			CNC(=O)c1cnc(N)c2cc(-c3ccc(N4CCOCC4)cc3)sc12
			1070 nM	967 nM		133 nM			CCNC(=O)c1cnc(N)c2cc(-c3ccc(N4CCOCC4)cc3)sc12
			1990 nM	2870 nM		406 nM			Nc1ncc(C(=O)Nc2ccccc2)c2sc(-c3ccc(N4CCOCC4)cc3)cc12
			2600 nM	> 125000 nM		307 nM			Nc1ncc(C(=O)NCc2ccccc2)c2sc(-c3ccc(N4CCOCC4)cc3)cc12
			6980 nM	10300 nM		8820 nM			CC(C)(C)NC(=O)c1cnc(N)c2cc(-c3ccc(N4CCOCC4)cc3)sc12
			5150 nM	1660 nM		3100 nM			CN(C)C(=O)c1cnc(N)c2cc(-c3ccc(N4CCOCC4)cc3)sc12
> 25000 nM			937 nM	767 nM	> 25000 nM	290 nM			CNC(=O)c1cnc(N)c2cc(-c3ccccc3)sc12
> 25000 nM		> 25000 nM	888 nM	545 nM	> 25000 nM	377 nM			CNC(=O)c1cnc(N)c2cc(-c3ccc(C)cc3)sc12
> 25000 nM			202 nM	188 nM	> 25000 nM	39 nM			CNC(=O)c1cnc(N)c2cc(-c3ccc(C(C)(C)C)cc3)sc12
> 25000 nM		6850 nM	208 nM	365 nM	> 25000 nM	70 nM			CNC(=O)c1cnc(N)c2cc(-c3ccc(OC(F)(F)F)cc3)sc12
> 25000 nM		1160 nM	146 nM	118 nM	> 25000 nM	36 nM			CNC(=O)c1cnc(N)c2cc(-c3ccc(C(C)(C)C#N)cc3)sc12
> 25000 nM	> 25000 nM	1090 nM	266 nM	307 nM	> 25000 nM	30 nM	625 nM	0.012	CNC(=O)c1cnc(N)c2cc(-c3ccc(S(=O)(=O)NC(C)(C)C)cc3)sc12
> 25000 nM			932 nM	434 nM	> 25000 nM	78 nM			CC(C)(C)NS(=O)(=O)c1ccc(-c2cc3c(N)ncc(C(=O)NCCO)c3s2)cc1
> 25000 nM	> 25000 nM	6610 nM	1480 nM	1280 nM	> 25000 nM	129 nM	4450 nM	0.023	COCCNC(=O)c1cnc(N)c2cc(-c3ccc(S(=O)(=O)NC(C)(C)C)cc3)sc12
> 25000 nM	> 25000 nM	> 25000 nM	4100 nM	3330 nM	> 25000 nM	708 nM	> 25000 nM	0.064	CN(C)CCNC(=O)c1cnc(N)c2cc(-c3ccc(S(=O)(=O)NC(C)(C)C)cc3)sc12
> 25000 nM		> 25000 nM	2670 nM	2380 nM	> 25000 nM	654 nM			CC(C)(C)NS(=O)(=O)c1ccc(-c2cc3c(N)ncc(C(=O)NCCN4CCCCC4)c3s2)cc1
> 25000 nM	> 25000 nM		757 nM	963 nM	> 25000 nM	177 nM	7300 nM	0.101	CC(C)(C)NS(=O)(=O)c1ccc(-c2cc3c(N)ncc(C(=O)NCCN4CCOCC4)c3s2)cc1
> 25000 nM		12600 nM	1550 nM	645 nM	> 25000 nM	206 nM			CC(C)(C)NS(=O)(=O)c1ccc(-c2cc3c(N)ncc(C(=O)NCCCN4CCOCC4)c3s2)cc1
